Data set [1] has as its system Escherichia coli. The data set is described as follows: Antibacterial activity against Escherichia coli UB1005 incubated for 18 to 24 hrs by broth microdilution method. In kind it is functional.
For data set [2], the system named is Staphylococcus aureus. The data set can be described thus: Antibacterial activity against Staphylococcus aureus ATCC 25923 incubated for 18 to 24 hrs by broth microdilution method. It is filed as functional. On the technique in general: In broth dilution the organism is exposed to a series of concentrations in liquid medium.
The nature of data set [3]: Therapeutic index, ratio of MHC for human RBC to geometric mean of peptide MIC for Escherichia coli ATCC 25922. The settings on record: pooled result: one value given for 6 cell lines, strains, targets or settings, read-out: TI. In kind it is toxicity.
Data set [4] relates to Acinetobacter baumannii. The data set is described as follows: Antibacterial activity against Acinetobacter baumannii AB1901 clinical isolate incubated for 18 to 24 hrs by broth microdilution method. In kind it is functional.
Data set [5] can be described thus: Cytotoxicity against mouse RAW264.7 cells assessed as cell survival at < 32 uM after 24 hrs by MTT assay. In kind it is cell-based. The settings on record: read-out: Activity.
For data set [6], the system named is Staphylococcus aureus. The data set can be described thus: Antibacterial activity against Staphylococcus aureus 11011 incubated for 18 to 24 hrs by broth microdilution method. In kind it is functional.
In a further data set the test system is Pseudomonas aeruginosa. The data set is described as follows: Antibacterial activity against Pseudomonas aeruginosa 25349 clinical isolate incubated for 18 to 24 hrs by broth microdilution method. In kind it is functional.
In data set [7] the test system is Escherichia coli. The data set can be described thus: Antibacterial activity against Escherichia coli 20411 clinical isolate incubated for 18 to 24 hrs by broth microdilution method. It is filed as functional.
Data set [8] deals with Escherichia coli. The data set can be described thus: Antibacterial activity against Escherichia coli ATCC 25922 incubated for 18 to 24 hrs by broth microdilution method. In kind it is functional.
Data set [9] concerns Staphylococcus aureus. The data set can be described thus: Antibacterial activity against Staphylococcus aureus ATCC 29213 incubated for 18 to 24 hrs by broth microdilution method. In kind it is functional.
Data set [10] has as its system Acinetobacter baumannii. The data set is described as follows: Antibacterial activity against Acinetobacter baumannii AB1902 clinical isolate incubated for 18 to 24 hrs by broth microdilution method. It is filed as functional.
The next data set relates to Erythrocyte. The data set is described as follows: Haemolytic activity in human erythrocytes assessed as lowest concentration causing 5% hemolysis after 1 hr. It is filed as ADME, cell-based.
The subject of data set [11] is Staphylococcus epidermidis. The data set can be described thus: Antibacterial activity against Staphylococcus epidermidis ATCC 12228 incubated for 18 to 24 hrs by broth microdilution method. It is filed as functional.
The test system of a further data set is Salmonella typhimurium. The data set can be described thus: Antibacterial activity against Salmonella enterica serovar typhimurium C77-31 incubated for 18 to 24 hrs by broth microdilution method. In kind it is functional, Salmonella enterica subsp. enterica serovar Typhimurium.

In brackets after ≈: the same amount, converted by molar mass. Where a SMILES comes first, the peptide text is derived from it. Bounds are passed on as bounds.

What is called MIC is the smallest concentration in the dilution series that meets the test's criterion for growth inhibition. Lower therefore signals greater potency.

Take `N=C(N)NCCC[C@H](NC(=O)[C@H](Cc1ccccc1)NC(=O)[C@H](CCCNC(=N)N)NC(=O)[C@H](Cc1c[nH]c2ccccc12)NC(=O)[C@H](CCCNC(=N)N)NC(=O)[C@H](Cc1ccccc1)NC(=O)[C@H](CCCNC(=N)N)NC(=O)[C@H](Cc1c[nH]c2ccccc12)NC(=O)[C@H](CCCNC(=N)N)NC(=O)[C@H](Cc1ccccc1)NC(=O)[C@H](CCCNC(=N)N)NC(=O)[C@@H](N)Cc1c[nH]c2ccccc12)C(N)=O` (H-WRFRWRFRWRFR-NH2): the MIC with Escherichia coli [1] was found to be 4 µM (≈ 7.82 µg/mL); in the data set with Staphylococcus aureus [2], 1 µM (≈ 1.95 µg/mL); in the data set on Acinetobacter baumannii [4], 2 µM (≈ 3.91 µg/mL); in the data set with Staphylococcus aureus [6] it was 2 µM (≈ 3.91 µg/mL); with Pseudomonas aeruginosa it was 8 µM (≈ 15.6 µg/mL); against Escherichia coli [7] it was 4 µM (≈ 7.82 µg/mL). The MIC against Escherichia coli [8] stood at 8 µM (≈ 15.6 µg/mL); against Staphylococcus aureus [9], 1 µM (≈ 1.95 µg/mL); in the data set with Acinetobacter baumannii [10], 2 µM (≈ 3.91 µg/mL); in [11], 2 µM (≈ 3.91 µg/mL); against Salmonella typhimurium, 2 µM (≈ 3.91 µg/mL). In data set [3], the selectivity ratio turned out to be 28.6. The viability at 24 h in data set [5] is greater than 90%. The MHC with Erythrocyte was 64 µM.

For the compound `CC[C@H](C)[C@H](NC(=O)[C@H](CCCNC(=N)N)NC(=O)[C@H](Cc1c[nH]c2ccccc12)NC(=O)[C@H](CCCNC(=N)N)NC(=O)[C@@H](NC(=O)[C@H](CCCCN)NC(=O)[C@H](Cc1c[nH]c2ccccc12)NC(=O)[C@H](CCCNC(=N)N)NC(=O)[C@@H](NC(=O)[C@H](CCCNC(=N)N)NC(=O)[C@@H](N)Cc1c[nH]c2ccccc12)[C@@H](C)CC)[C@@H](C)O)C(=O)N[C@@H](CCCCN)C(N)=O` (H-WRIRWKTRWRIK-NH2), the MIC was 2 µM (≈ 3.57 µg/mL) against Escherichia coli [1]; 2 µM (≈ 3.57 µg/mL) against Staphylococcus aureus [2]; 2 µM (≈ 3.57 µg/mL) in the data set with Acinetobacter baumannii [4]; 2 µM (≈ 3.57 µg/mL) against Staphylococcus aureus [6]; 8 µM (≈ 14.3 µg/mL) with Pseudomonas aeruginosa; 2 µM (≈ 3.57 µg/mL) with Escherichia coli [7]. For the same compound, the MIC stood at 4 µM (≈ 7.14 µg/mL) against Escherichia coli [8]; 2 µM (≈ 3.57 µg/mL) against Staphylococcus aureus [9]; 2 µM (≈ 3.57 µg/mL) against Acinetobacter baumannii [10]; 2 µM (≈ 3.57 µg/mL) in data set [11]; 2 µM (≈ 3.57 µg/mL) in the data set with Salmonella typhimurium. Moreover, the selectivity ratio in data set [3] worked out at 114. Also, the viability at 24 h in [5] was greater than 90%. Moreover, in the data set on Erythrocyte, the MHC was greater than 128 µM.

Consider `CC(C)C[C@H](NC(=O)[C@H](CCCNC(=N)N)NC(=O)[C@H](Cc1c[nH]c2ccccc12)NC(=O)[C@H](CCCNC(=N)N)NC(=O)[C@H](CC(C)C)NC(=O)[C@H](CCCNC(=N)N)NC(=O)[C@H](Cc1c[nH]c2ccccc12)NC(=O)[C@H](CCCNC(=N)N)NC(=O)[C@H](CC(C)C)NC(=O)[C@H](CCCNC(=N)N)NC(=O)[C@@H](N)Cc1c[nH]c2ccccc12)C(=O)N[C@@H](CCCNC(=N)N)C(N)=O` (H-WRLRWRLRWRLR-NH2), for which the MIC worked out at 2 µM (≈ 3.7 µg/mL) in the data set with Escherichia coli [1]; 2 µM (≈ 3.7 µg/mL) in the data set with Staphylococcus aureus [2]; 2 µM (≈ 3.7 µg/mL) in the data set on Acinetobacter baumannii [4]; 1 µM (≈ 1.85 µg/mL) against Staphylococcus aureus [6]; 4 µM (≈ 7.41 µg/mL) with Pseudomonas aeruginosa; 2 µM (≈ 3.7 µg/mL) against Escherichia coli [7]. Further, the MIC came out at 4 µM (≈ 7.41 µg/mL) against Escherichia coli [8]; 1 µM (≈ 1.85 µg/mL) in the data set on Staphylococcus aureus [9]; 4 µM (≈ 7.41 µg/mL) in the data set on Acinetobacter baumannii [10]; 2 µM (≈ 3.7 µg/mL) in data set [11]; 2 µM (≈ 3.7 µg/mL) in the data set on Salmonella typhimurium. Besides, the selectivity ratio in data set [3] amounted to 128. In [5], the viability at 24 h was greater than 90%. Also, the MHC in the data set with Erythrocyte is greater than 128 µM.

Consider `CC[C@H]1OC(=O)[C@H](C)[C@@H](O[C@H]2C[C@@](C)(OC)[C@@H](O)[C@H](C)O2)[C@H](C)[C@@H](O[C@@H]2O[C@H](C)C[C@H](N(C)C)[C@H]2O)[C@](C)(O)C[C@@H](C)C(=O)[C@H](C)[C@@H](O)[C@]1(C)O` [ERYTHROMYCIN], for which the MIC in the data set on Escherichia coli [1] is 32 µM (≈ 23.5 µg/mL); with Staphylococcus aureus [2] it was 0.5 µM (≈ 0.367 µg/mL); against Acinetobacter baumannii [4], greater than 128 µM; in the data set on Staphylococcus aureus [6], 1 µM (≈ 0.734 µg/mL); with Pseudomonas aeruginosa, 128 µM (≈ 93.9 µg/mL); against Escherichia coli [7], 64 µM (≈ 47 µg/mL). For the same compound, the MIC is 32 µM (≈ 23.5 µg/mL) against Escherichia coli [8]; 0.5 µM (≈ 0.367 µg/mL) in the data set with Staphylococcus aureus [9]; greater than 128 µM with Acinetobacter baumannii [10]; 0.25 µM (≈ 0.183 µg/mL) in data set [11]; 32 µM (≈ 23.5 µg/mL) in the data set on Salmonella typhimurium.

Consider `CN[C@H](CC(C)C)C(=O)N[C@H]1C(=O)N[C@@H](CC(N)=O)C(=O)N[C@H]2C(=O)N[C@H]3C(=O)N[C@H](C(=O)N[C@H](C(=O)O)c4cc(O)cc(O)c4-c4cc3ccc4O)[C@H](O)c3ccc(c(Cl)c3)Oc3cc2cc(c3O[C@@H]2O[C@H](CO)[C@@H](O)[C@H](O)[C@H]2O[C@H]2C[C@](C)(N)[C@H](O)[C@H](C)O2)Oc2ccc(cc2Cl)[C@H]1O` [VANCOMYCIN], for which the MIC was 128 µM (≈ 186 µg/mL) against Escherichia coli [1]; 0.5 µM (≈ 0.725 µg/mL) in the data set on Staphylococcus aureus [2]; greater than 128 µM against Acinetobacter baumannii [4]; 0.25 µM (≈ 0.362 µg/mL) in the data set with Staphylococcus aureus [6]; greater than 128 µM in the data set with Pseudomonas aeruginosa; 64 µM (≈ 92.8 µg/mL) against Escherichia coli [7]. Besides, the MIC against Escherichia coli [8] is 128 µM (≈ 186 µg/mL); with Staphylococcus aureus [9] it was 0.5 µM (≈ 0.725 µg/mL); in the data set with Acinetobacter baumannii [10], greater than 128 µM; in [11], 0.5 µM (≈ 0.725 µg/mL); against Salmonella typhimurium, 128 µM (≈ 186 µg/mL).

The values above are taken from ChEMBL document CHEMBL4311942, “Design of Trp-Rich Dodecapeptides with Broad-Spectrum Antimicrobial Potency and Membrane-Disruptive Mechanism” (J Med Chem, 2019).
